{"source": "paper PMC12881681", "about": "(Molecular Pharmacology, 2025)", "key": {"[1]": {"molecular_target": "T1, human liver cytosolic AOX1 (Homo sapiens, UniProt Q06278)", "T1 sequence (Q06278 1-1338)": "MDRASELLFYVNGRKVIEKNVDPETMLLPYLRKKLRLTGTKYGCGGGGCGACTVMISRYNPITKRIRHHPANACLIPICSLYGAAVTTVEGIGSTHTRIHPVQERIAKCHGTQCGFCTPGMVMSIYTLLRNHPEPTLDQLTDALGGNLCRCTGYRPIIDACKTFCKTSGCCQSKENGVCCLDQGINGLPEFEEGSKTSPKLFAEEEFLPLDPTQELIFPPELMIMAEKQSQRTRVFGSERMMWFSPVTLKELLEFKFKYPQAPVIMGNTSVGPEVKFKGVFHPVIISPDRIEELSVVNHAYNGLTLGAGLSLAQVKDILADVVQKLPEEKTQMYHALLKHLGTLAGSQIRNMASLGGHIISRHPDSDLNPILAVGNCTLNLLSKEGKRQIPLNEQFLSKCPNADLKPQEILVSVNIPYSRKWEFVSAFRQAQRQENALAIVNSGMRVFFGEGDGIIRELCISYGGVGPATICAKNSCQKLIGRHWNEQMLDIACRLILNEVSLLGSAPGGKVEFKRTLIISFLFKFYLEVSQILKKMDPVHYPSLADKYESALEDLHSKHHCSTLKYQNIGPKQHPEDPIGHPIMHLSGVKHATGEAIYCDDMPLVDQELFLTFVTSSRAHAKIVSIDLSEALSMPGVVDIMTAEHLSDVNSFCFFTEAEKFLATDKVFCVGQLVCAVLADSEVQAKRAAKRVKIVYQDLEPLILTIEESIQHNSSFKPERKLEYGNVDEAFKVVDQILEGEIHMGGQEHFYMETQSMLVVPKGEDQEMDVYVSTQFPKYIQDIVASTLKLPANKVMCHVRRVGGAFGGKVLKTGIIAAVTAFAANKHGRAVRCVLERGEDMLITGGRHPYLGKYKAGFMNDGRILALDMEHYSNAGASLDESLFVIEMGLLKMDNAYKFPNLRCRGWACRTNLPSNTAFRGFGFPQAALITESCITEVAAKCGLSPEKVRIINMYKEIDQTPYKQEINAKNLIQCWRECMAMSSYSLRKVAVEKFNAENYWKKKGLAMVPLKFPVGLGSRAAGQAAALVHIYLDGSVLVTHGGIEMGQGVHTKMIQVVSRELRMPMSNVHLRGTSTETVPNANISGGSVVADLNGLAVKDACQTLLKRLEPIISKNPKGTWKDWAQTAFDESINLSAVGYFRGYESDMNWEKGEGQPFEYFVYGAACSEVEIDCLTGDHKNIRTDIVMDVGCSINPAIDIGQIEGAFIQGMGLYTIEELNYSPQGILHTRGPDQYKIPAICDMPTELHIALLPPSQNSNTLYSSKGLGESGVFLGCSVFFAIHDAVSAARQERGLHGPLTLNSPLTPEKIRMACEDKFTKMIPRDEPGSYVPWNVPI", "experiment": "Effects of a competing AOX1 substrate and a competitive AOX1 inhibitor on AOX1 inactivation", "assay_type": "biochemical", "parameters": "Enzymatic reaction was initiated by adding human liver cytosol (100 μg); tissue Corning, Inc. (Gentest brand) 452115; host or cells: human liver cytosol, pool of 150 donors", "conditions": "human liver cytosol; for effect of O^6-benzylguanine on extent of AOX1 inactivation: O^6-benzylguanine 120, 240 (480) μM; for effect of O^6-benzylguanine on extent of AOX1 inactivation / effect of gefitinib on extent of AOX1 inactivation: carbazeran 4-oxidation; for effect of gefitinib on extent of AOX1 inactivation: gefitinib 3, 10, 30 μM", "description": "The molar ratio of O^6-benzylguanine (120, 240, and 480 μM) to 3-vinylerlotinib (10 μM) was 12, 24, and 48, O^6-benzylguanine to 4′-methylerlotinib (3 μM) was 40, 80, and 160, and O^6-benzylguanine to 2-methylerlotinib (1 μM) was 120, 240, and 480, respectively. […] Each standard incubation mixture was subjected to the same procedures as described in Enzyme Inactivation Experiments. The residual AOX1 enzyme activity was determined by the carbazeran 4-oxidation or O^6-benzylguanine 8-oxidation assay."}, "[2]": {"molecular_target": "T1, human liver cytosolic AOX1", "assay_type": "biochemical", "parameters": "Enzymatic reaction was initiated by adding human liver cytosol (100 μg); tissue Corning, Inc. (Gentest brand) 452115; host or cells: human liver cytosol, pool of 150 donors", "conditions": "potassium ferricyanide 2 mM, 0 or 6 min preincubation", "description": "The residual AOX1 enzyme activity was determined by the carbazeran 4-oxidation assay.\nA test chemical at a concentration described above was incubated with human liver cytosol (100 μg protein) at 37 °C for 0 or 6 minutes. […] After 10-minute incubation, an aliquot (50 μL) of the […] (total volume of 200 μL) containing potassium phosphate buffer and carbazeran (15 μM), which yielded a 4-fold dilution of the secondary incubation mixture. The residual AOX1 enzyme activity was determined as described above."}, "[3]": {"experiment": "Rapid equilibrium dialysis, nonspecific binding to human liver cytosol", "description": "Nonspecific binding of test chemicals to human liver cytosol (100 μg) was determined using a Rapid Equilibrium Dialysis Kit (Thermo Fisher Scientific), as described in detail in our previous publication.[27]\nMOLPHA- D-25- 00208 Supplemental Materials. Kweh et al. Mol Pharmacol […]\ninhibition constants (Ki,u ) for the inhibition of human liver cytosolic carbazeran 4-oxidation A mixture containing a test chemical (10 µM; dissolved in a final concentration of 0.5% v/v DMSO) and human liver cytosol (100 µg total cytosolic protein) were dialyzed as described under Materials and Methods. Chemical concentr ation in each chamber wa s quantified by UPLC-MS/MS. Data are exp ressed as mean ± S.D. of three independent experiments. […]\na, K I,u = f u × K I, where fu was calcul ated from 10 µ M of chemicals in human liver cytosol."}, "[4]": {"conditions": "10 μM, human liver cytosol 100 μg protein, 4-hour dialysis"}}}
{"molecule": "C#Cc1cccc(Nc2nc(C)nc3cc(OCCOC)c(OCCOC)cc23)c1", "note": "[2-Methylerlotinib, 2-methylerlotinib]", "values": [{"measurement": "effect of O^6-benzylguanine on extent of AOX1 inactivation", "setting": "[1]", "value": "attenuated"}, {"measurement": "effect of gefitinib on extent of AOX1 inactivation", "setting": "[1]", "value": "attenuated"}, {"measurement": "effect of coincubation or postincubation with potassium ferricyanide on AOX1 inactivation", "setting": "[2]", "value": "not increased or decreased"}, {"measurement": "Fraction Unbound (fu)", "setting": "[3]; human, cytosol", "value": "0.51 ± 0.07"}]}
{"molecule": "C#Cc1cccc(Nc2ncnc3cc(OCCOC)c(OCCOC)cc23)c1", "note": "[Erlotinib]", "values": [{"measurement": "effect of O^6-benzylguanine on extent of AOX1 inactivation", "setting": "[1]", "value": "attenuated"}, {"measurement": "decrease in carbazeran 4-oxidation in the presence of gefitinib", "setting": "[1]; inactivator 1.5 μM + 3 μM gefitinib", "value": 73, "unit": "%"}, {"measurement": "decrease in carbazeran 4-oxidation in the presence of gefitinib", "setting": "[1]; inactivator 1.5 μM + 10 μM gefitinib", "value": 55, "unit": "%"}, {"measurement": "decrease in carbazeran 4-oxidation in the presence of gefitinib", "setting": "[1]; inactivator 1.5 μM + 30 μM gefitinib", "value": 47, "unit": "%"}, {"measurement": "effect of coincubation or postincubation with potassium ferricyanide on AOX1 inactivation", "setting": "[2]", "value": "not increased or decreased"}, {"measurement": "fraction unbound at 4 h, 10 μM", "setting": "[3]; human, human liver cytosol", "value": 0.56}]}
{"molecule": "C#Cc1cccc(Nc2ncnc3cc(OCCO)c(OCCO)cc23)c1", "note": "[O-Didesmethylerlotinib, O-didesmethylerlotinib]", "values": [{"measurement": "effect of O^6-benzylguanine on extent of AOX1 inactivation", "setting": "[1]", "value": "attenuated"}, {"measurement": "effect of gefitinib on extent of AOX1 inactivation", "setting": "[1]", "value": "attenuated"}, {"measurement": "effect of coincubation or postincubation with potassium ferricyanide on AOX1 inactivation", "setting": "[2]", "value": "not increased or decreased"}, {"measurement": "Fraction Unbound (fu)", "setting": "[3]; [4]", "value": 0.84}]}
{"molecule": "C=Cc1cccc(Nc2ncnc3cc(OCCOC)c(OCCOC)cc23)c1", "note": "[3-Vinylerlotinib, 3-vinylerlotinib]", "values": [{"measurement": "effect of O^6-benzylguanine on extent of AOX1 inactivation", "setting": "[1]", "value": "attenuated"}, {"measurement": "effect of gefitinib on extent of AOX1 inactivation", "setting": "[1]", "value": "attenuated"}, {"measurement": "effect of coincubation or postincubation with potassium ferricyanide on AOX1 inactivation", "setting": "[2]", "value": "not increased or decreased"}, {"measurement": "Fraction Unbound (fu)", "setting": "[3]; human, cytosol", "value": "0.78 ± 0.04"}]}
{"molecule": "C#Cc1cccc(Nc2ncnc3cc(OCCOC)c(OCCO)cc23)c1", "note": "[O-Desmethylerlotinib, O-desmethylerlotinib]", "values": [{"measurement": "effect of O^6-benzylguanine on extent of AOX1 inactivation", "setting": "[1]", "value": "attenuated"}, {"measurement": "effect of gefitinib on extent of AOX1 inactivation", "setting": "[1]", "value": "attenuated"}, {"measurement": "effect of coincubation or postincubation with potassium ferricyanide on AOX1 inactivation", "setting": "[2]", "value": "not increased or decreased"}, {"measurement": "Fraction Unbound (fu)", "setting": "[3]; [4]", "value": 0.84}]}
{"molecule": "C#Cc1cc(Nc2ncnc3cc(OCCOC)c(OCCOC)cc23)ccc1C", "note": "[4′-Methylerlotinib, 4′-methylerlotinib]", "values": [{"measurement": "effect of O^6-benzylguanine on extent of AOX1 inactivation", "setting": "[1]", "value": "attenuated"}, {"measurement": "effect of gefitinib on extent of AOX1 inactivation", "setting": "[1]", "value": "attenuated"}, {"measurement": "effect of coincubation or postincubation with potassium ferricyanide on AOX1 inactivation", "setting": "[2]", "value": "not increased or decreased"}, {"measurement": "Fraction Unbound (fu)", "setting": "[3]; human, cytosol", "value": "0.73 ± 0.05"}]}
